Measurements taken from PubChem BioAssay AID1963968 (Molecular Pharmacology Branch, DTP, NCI, 2024).

System: 945468-187-T-J3-PDC spheroids with HUVEC/MSC, viability
Experiment: Anticancer human tumor 945468-187-T-J3-PDC patient-derived rectal carcinoma cell line growth inhibition [PI3K]
Conditions: for IC50: curve of first compound; for viability, T/C: stronger effect = lower value
Source text: Combinatorial screen of targeted agents with the PI3K inhibitors inavolisib, alpelisib, duvelisib, and copanlisib in multi-cell type tumor spheroids
A high-throughput screen of multi-cell type tumor spheroids was designed to identify active combinations of targeted small molecules and PI3K pathway inhibitors. Complex spheroids include a stromal component modeled by human endothelial cells (HUVEC) and fibroblasts modeled by human mesenchymal stem cells (MSCs). The concentration ranges selected for each drug and investigational agent were based upon clinically achievable concentrations if the clinical Cmax of the agent was known.
Compounds. The drugs and investigational agents: inavolisib (NSC800729), alpelisib (NSC765974), duvelisib (NSC772469), copanlisib (NSC816437), ipatasertib (NSC767898), afuresertib (NSC778305), talazoparib (NSC767125), sapanisertib (NSC764658), selumetinib (NSC741078), tovorafenib (DAY101, NSC766906), vemurafenib (NSC761431), ravoxertinib (NSC781343), sotorasib (NSC818433), MRTX1133 (NSC 836407), abemaciclib (NSC 768073), palbociclib (NSC758247), venetoclax (NSC 766270), SY5609 (NSC837396), enzalutamide (NSC755605), and darolutamide (NSC825331), were obtained from the National Cancer Institute (NCI) Developmental Therapeutics Program Chemical Repository. The FDA-approved anticancer drug set is available from the NCI Developmental Therapeutics Program. […] The stock solutions were prepared in dimethyl sulfoxide (DMSO, Sigma-Aldrich, St. Louis, MO, cat. D2650) at 800-fold the tested concentration and stored at -70 degrees C prior to their use. All drugs and investigational agents were tested over a range starting from a high concentration at or near the clinical Cmax and decreasing in half-log increments. If the clinical Cmax for an agent had not been determined, the highest concentration tested was 10 microM.
Cell Culture. All cells were maintained in an incubator at 37 degrees C and 5% CO2 with 95% humidity. The PDC lines were cultured according to standard operating procedures established by the NCI PDMR (https://pdmr.cancer.gov/sops/default.htm). All PDCs were thawed and cultured in Matrigel-coated flasks prepared with a working solution of 1X Ham's F-12 nutrient mix, without supplementation (Invitrogen, Waltham, MA, cat. 11765054), 100 U/mL penicillin-streptomycin (Invitrogen, cat. 15140122), and 2.5% Matrigel (Corning Inc., Corning, NY, cat. 354248) for the first three passages. The 354836-022-R-J1-PDC, 475296-252-R-J1-PDC, and 997726-040-R-J2-PDC lines were cultured in 6A media, which includes advanced DMEM/F-12 (Thermo Fisher Scientific, cat. 12634028), 10 mM HEPES (Thermo Fisher Scientific, cat. 15630080), 1X GlutaMAX supplement (Thermo Fisher Scientific, cat. 35050061), 0.1 mg/mL primocin (InvivoGen, San Diego, CA, cat. ant-pm-2), 10% defined fetal bovine serum, heat inactivated (HyClone Laboratories Inc., Logan, UT, cat. SH30070.03HI), 50% L-WRN conditioned media (ATCC, cat. CRL-3276), 1.25 mM N-Acetyl-L-cysteine (Sigma-Aldrich, cat. A9165), 10 mM nicotinamide (Sigma-Aldrich, cat. N0636), 1X B-27 supplement (Thermo Fisher Scientific, cat. 17504044), 1X N-2 supplement (Thermo Fisher Scientific, cat. 17502048), and 10 microM Y-27632 dihydrochloride (Tocris Bioscience, Bristol, United Kingdom, cat. 1254). The 624824-186-R-J2-PDC line was cultured in 6C/Colon 1B media, which includes all 6A media components plus 50 ng/mL human EGF recombinant protein (Thermo Fisher Scientific, cat. PHG0311). […]
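Further: spheroids exposed to agents for 7 days before viability read.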
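Wherever viability, T/C is given: 100% = DMSO vehicle control viability.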

CCN1CCN(Cc2ccc(Nc3ncc(F)c(-c4cc(F)c5nc(C)n(C(C)C)c5c4)n3)nc2)CC1 + CC(Nc1ccc2c(c1)OCCn1cc(N3C(=O)OCC3C(F)F)nc1-2)C(N)=O showed an IC50 (second compound 0.00316 µM) of over 1000 nM, an IC50 (second compound 0.01 µM) of over 1000 nM and an IC50 (second compound 0.0316 µM) of over 1000 nM. The IC50 (second compound 0.1 µM) was 539 nM, the IC50 (second compound 0.316 µM) was 191 nM and the IC50 (second compound 1 µM) was 29.5 nM. For the same molecule, the viability, T/C (second compound 0.00316 µM, first compound 0.00316 µM) was 92%, the viability, T/C (second compound 0.00316 µM, first compound 0.01 µM) was 103% and the viability, T/C (second compound 0.00316 µM, first compound 0.0316 µM) was 98%. For the same molecule, the viability, T/C (second compound 0.00316 µM, first compound 0.1 µM) was 95.6%, the viability, T/C (second compound 0.00316 µM, first compound 0.316 µM) was 95.2% and the viability, T/C (second compound 0.00316 µM, first compound 1 µM) was 93.1%. For the same molecule, the viability, T/C (second compound 0.01 µM, first compound 0.00316 µM) was 89.4%, the viability, T/C (second compound 0.01 µM, first compound 0.01 µM) was 103% and the viability, T/C (second compound 0.01 µM, first compound 0.0316 µM) was 95.1%. It also gave a viability, T/C (second compound 0.01 µM, first compound 0.1 µM) of 106%, a viability, T/C (second compound 0.01 µM, first compound 0.316 µM) of 123% and a viability, T/C (second compound 0.01 µM, first compound 1 µM) of 70.1%. For the same molecule, the viability, T/C (second compound 0.0316 µM, first compound 0.00316 µM) was 104%, the viability, T/C (second compound 0.0316 µM, first compound 0.01 µM) was 96.7% and the viability, T/C (second compound 0.0316 µM, first compound 0.0316 µM) was 94.2%. It also gave a viability, T/C (second compound 0.0316 µM, first compound 0.1 µM) of 97.3%, a viability, T/C (second compound 0.0316 µM, first compound 0.316 µM) of 102% and a viability, T/C (second compound 0.0316 µM, first compound 1 µM) of 53%. For the same molecule, the viability, T/C (second compound 0.1 µM, first compound 0.00316 µM) was 91.2%, the viability, T/C (second compound 0.1 µM, first compound 0.01 µM) was 102% and the viability, T/C (second compound 0.1 µM, first compound 0.0316 µM) was 94.1%. For the same molecule, the viability, T/C (second compound 0.1 µM, first compound 0.1 µM) was 94.1%, the viability, T/C (second compound 0.1 µM, first compound 0.316 µM) was 69% and the viability, T/C (second compound 0.1 µM, first compound 1 µM) was 28.1%. For the same molecule, the viability, T/C (second compound 0.316 µM, first compound 0.00316 µM) was 87.7%, the viability, T/C (second compound 0.316 µM, first compound 0.01 µM) was 77.5% and the viability, T/C (second compound 0.316 µM, first compound 0.0316 µM) was 77.8%. For the same molecule, the viability, T/C (second compound 0.316 µM, first compound 0.1 µM) was 69.7%, the viability, T/C (second compound 0.316 µM, first compound 0.316 µM) was 35% and the viability, T/C (second compound 0.316 µM, first compound 1 µM) was 23.4%. The viability, T/C (second compound 1 µM, first compound 0.00316 µM) was 76.9%, the viability, T/C (second compound 1 µM, first compound 0.01 µM) was 56.7% and the viability, T/C (second compound 1 µM, first compound 0.0316 µM) was 48.6%. The viability, T/C (second compound 1 µM, first compound 0.1 µM) was 43%, the viability, T/C (second compound 1 µM, first compound 0.316 µM) was 32.1% and the viability, T/C (second compound 1 µM, first compound 1 µM) was 25%.
